Assay results as given in patent US10183014B2, “Ocular formulations for drug-delivery and protection of the anterior segment of the eye” (PanOptica, Inc., priority 2014, dated 2019).
Read-outs that look alike come from different tables or passages of the source.

Columns and labels:
pathologic angiogenesis = test: Pathologic angiogenesis, rat growth plate model, systemic administration; type: in vivo
PTK6 (Brk) = PTK6 (Brk) (Homo sapiens, UniProt Q13882); test: In vitro inhibition of tyrosine kinases; type: biochemical; settings: read-out: Mean % Inhibition at 1 μM Compound-I; 1 μM (568.9 ng/mL)
[1] = 1- to 5-day PK with topical ocular Compound-I formulations (Example 5); type: in vivo, Dutch Belted rabbits; settings: for concentration at 0.5 h / concentration at 8 h / concentration at 24 h / concentration at 4 h / concentration at 2 h / concentration at 1 h: Dutch Belted, rabbit, topical
Protocol: On day 1, Groups 1, 2, 4-6, 8, 10, 11, 13, 15, and 17 received one dose (q.d.) for either one (1) or four (4) days.
Peripheral retina and peripheral choroid samples were assayed only for Groups 1-8, 12, 14, and 16 per study protocol.

[2] = Ocular pharmacokinetics of formulations, Example 20-5; type: in vivo, Dutch Belted rabbits; settings: Dutch Belted, rabbit, central choroid, topical, read-out: Central Choroid concentration
Protocol: The study design (Table 19-1) consisted of forty-seven (47) Dutch Belted rabbits, each receiving a 30 μL bilateral topical ocular dose. Various suspension formulations of the present application were evaluated and compared against a cyclodextrin-based eye drops solution (Control Group 1, Table 19-1). Formula II or Compound-I was used in the test suspensions as well as the Eye Drops solution.
Ocular sampling occurred one hour following the first daily dose on Day 5 for all groups. Whole blood samples using K2EDTA as an anticoagulant were collected from all animals on Day 5, 1 hour post dose. The whole blood was placed on ice until samples were spun in a centrifuge to separate the plasma. Aqueous humor, conjunctiva, cornea, central retina, peripheral retina, central choroid, and peripheral choroid samples were collected following necropsy. Samples were then frozen at −70° C. or lower. For all Groups 1-15, plasma, central retina, central choroid, and cornea samples were assayed. For Group 5 only, samples were analyzed for Vitamin K3.
An analytical method for the analysis of Vitamin K3 was determined in plasma, central retina, central choroid, and cornea samples from Group 5 animals. A calibration curve prepared in control vitreous humor was used to determine the concentration of Vitamin K3. Internal standard (IS) responses were inconsistent for the central choroid and plasma samples. Thus, positive plasma results were likely due to the reduced IS response.

[3] = Groups 1, 5: one dose day 1, 0.5 hr post-dose
[4] = Groups 1, 5: one dose day 1, 24 hr post-dose

Sequence of PTK6 (Brk) (Q13882 whole entry, species assumed): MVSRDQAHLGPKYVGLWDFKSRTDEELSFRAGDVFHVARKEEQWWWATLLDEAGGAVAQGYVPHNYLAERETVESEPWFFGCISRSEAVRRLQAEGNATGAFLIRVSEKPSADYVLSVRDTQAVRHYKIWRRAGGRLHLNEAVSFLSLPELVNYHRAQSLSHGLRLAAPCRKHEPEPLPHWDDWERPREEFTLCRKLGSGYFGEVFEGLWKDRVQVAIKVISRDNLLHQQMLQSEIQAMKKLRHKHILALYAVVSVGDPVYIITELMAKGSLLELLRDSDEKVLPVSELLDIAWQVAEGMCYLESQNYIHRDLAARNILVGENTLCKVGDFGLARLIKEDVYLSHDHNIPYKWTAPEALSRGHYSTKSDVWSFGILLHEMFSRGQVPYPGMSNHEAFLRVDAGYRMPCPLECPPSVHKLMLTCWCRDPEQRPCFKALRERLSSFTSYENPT

Cl.NC(=O)c1c(OCc2c(F)cc(Br)cc2F)nsc1NC(=O)NCCCCN1CCCC1 [Compound-I, 3-[(4-bromo-2,6-difluorophenyl)methoxy]-5-[[[[4-(1-pyrrolidinyl)butyl]amino]carbonyl]amino]-4-isothiazolecarboxamide hydrochloride]
Pathologic angiogenesis (pathologic angiogenesis): inhibit
inhibition at 1 µM (PTK6 (Brk)): 88%
concentration at 0.5 h ([1]; aqueous humor, 30 μL (bilateral), Groups 1, 5: one dose day 1, 0.5 hr post-dose, read-out: Average Concentration Aqueous Humor): 1.62 nM
concentration at 8 h ([1]; aqueous humor, 30 μL (bilateral), Groups 1, 5: one dose day 1, 8 hr post-dose, read-out: Average Concentration Aqueous Humor): 6.67 nM
concentration at 24 h ([1]; aqueous humor, 30 μL (bilateral), Groups 1, 5: one dose day 1, 24 hr post-dose, read-out: Average Concentration Aqueous Humor): 3.03 nM
concentration at 4 h ([1]; aqueous humor, 30 μL bilateral (each eye), Group 5: one dose day 1, 4 hr post-dose, read-out: Average Concentration Aqueous Humor): 9.11 nM
concentration at 2 h ([1]; aqueous humor, 30 μL bilateral (each eye), Groups 1, 5: one dose day 1, 2 hr post-dose, read-out: Average Concentration Aqueous Humor): 8.62 nM
concentration at 1 h ([1]; aqueous humor, 30 μL bilateral, Groups 1, 5: one dose day 1, 1 hr post-dose, read-out: Average Concentration Aqueous Humor): 1.08 nM
concentration at 1 h ([1]; central choroid, 30 μL (bilateral), q.d. groups (2,4,6,8,10,11,13,15,17), 4 days, 1 hr after day 5 morning dose, read-out: Average Concentration Central Choroid): 196 nM
concentration at 24 h ([1]; central choroid, 30 μL (bilateral, each eye), q.d. groups (2,6,8,11,13), 4 days, 24 hr after day 5 morning dose, read-out: Average Concentration Central Choroid): 319 nM
concentration at 24 h ([1]; central choroid, 30 μL per eye (bilateral), b.i.d. groups (3,7), 4 days, 24 hr after day 5 morning dose, read-out: Average Concentration Central Choroid): 283 nM
concentration at 24 h ([1]; central choroid, 30 μL, q.d. groups (2,6,8,11,13), 4 days, 24 hr after day 5 morning dose, read-out: Average Concentration Central Choroid): 218 nM
concentration at 8 h ([1]; central retina, 30 μL (bilateral), Groups 1, 5: one dose day 1, 8 hr post-dose, read-out: Average Concentration Central Retina): 30.4 nM
concentration at 1 h ([1]; central retina, 30 μL (bilateral), q.d. groups (2,4,6,8,10,11,13,15,17), 4 days, 1 hr after day 5 morning dose, read-out: Average Concentration Central Retina): 36.3 nM
concentration at 24 h ([1]; central retina, 30 μL (bilateral), q.d. groups (2,6,8,11,13), 4 days, 24 hr after day 5 morning dose, read-out: Average Concentration Central Retina): 24.1 nM
concentration at 4 h ([1]; central retina, 30 μL bilateral (each eye), Group 5: one dose day 1, 4 hr post-dose, read-out: Average Concentration Central Retina): 29.9 nM
concentration at 2 h ([1]; central retina, 30 μL bilateral (each eye), Groups 1, 5: one dose day 1, 2 hr post-dose, read-out: Average Concentration Central Retina): 35.4 nM
concentration at 24 h ([1]; central retina, 30 μL per eye (bilateral), b.i.d. groups (3,7), 4 days, 24 hr after day 5 morning dose, read-out: Average Concentration Central Retina): 29.2 nM
concentration at 8 h ([1]; central retina, 30 μL per eye (bilateral), q.d. groups (2,6), 4 days, 8 hr after day 5 morning dose, read-out: Average Concentration Central Retina): 38 nM
concentration at 24 h ([1]; central retina, 30 μL per eye (bilateral), q.d. groups (2,6,8,11,13), 4 days, 24 hr after day 5 morning dose, read-out: Average Concentration Central Retina): 24.6 nM
concentration at 1 h ([1]; central retina, 30 μL, b.i.d. groups (3,7,9,12,14,16), 4 days, 1 hr after day 5 morning dose, read-out: Average Concentration Central Retina): 40.7 nM
concentration at 4 h ([1]; cornea, 30 μL (bilateral), Group 5: one dose day 1, 4 hr post-dose, read-out: Average Concentration Cornea): 14100 nM
concentration at 2 h ([1]; cornea, 30 μL bilateral (each eye), Groups 1, 5: one dose day 1, 2 hr post-dose, read-out: Average Concentration Cornea): 28100 nM
concentration at 1 h ([1]; cornea, 30 μL bilateral, Groups 1, 5: one dose day 1, 1 hr post-dose, read-out: Average Concentration Cornea): 16900 nM
concentration at 4 h ([1]; peripheral choroid, 30 μL (bilateral), Group 5: one dose day 1, 4 hr post-dose, read-out: Average Concentration Peripheral Choroid): 77.5 nM
concentration at 8 h ([1]; peripheral choroid, 30 μL (bilateral), Groups 1, 5: one dose day 1, 8 hr post-dose, read-out: Average Concentration Peripheral Choroid): 87.4 nM
concentration at 24 h ([1]; peripheral choroid, 30 μL (bilateral), Groups 1, 5: one dose day 1, 24 hr post-dose, read-out: Average Concentration Peripheral Choroid): 88 nM
concentration at 1 h ([1]; peripheral choroid, 30 μL bilateral, Groups 1, 5: one dose day 1, 1 hr post-dose, read-out: Average Concentration Peripheral Choroid): 47.3 nM
concentration at 24 h ([1]; peripheral choroid, 30 μL per eye (bilateral), b.i.d. groups (3,7), 4 days, 24 hr after day 5 morning dose, read-out: Average Concentration Peripheral Choroid): 892 nM
concentration at 1 h ([1]; peripheral choroid, 30 μL per eye (bilateral), b.i.d. groups (3,7,12,14,16), 4 days, 1 hr after day 5 morning dose, read-out: Average Concentration Peripheral Choroid): 765 nM
concentration at 8 h ([1]; peripheral retina, 30 μL (bilateral), Groups 1, 5: one dose day 1, 8 hr post-dose, read-out: Average Concentration Peripheral Retina): 33.3 nM
concentration at 24 h ([1]; peripheral retina, 30 μL (bilateral), Groups 1, 5: one dose day 1, 24 hr post-dose, read-out: Average Concentration Peripheral Retina): 15.1 nM
concentration at 1 h ([1]; peripheral retina, 30 μL (bilateral), q.d. groups (2,4,6,8), 4 days, 1 hr after day 5 morning dose, read-out: Average Concentration Peripheral Retina): 96.1 nM
concentration at 4 h ([1]; peripheral retina, 30 μL bilateral (each eye), Group 5: one dose day 1, 4 hr post-dose, read-out: Average Concentration Peripheral Retina): 31.2 nM
concentration at 0.5 h ([1]; peripheral retina, 30 μL bilateral, Groups 1, 5: one dose day 1, 0.5 hr post-dose, read-out: Average Concentration Peripheral Retina): 22.7 nM
concentration at 8 h ([1]; peripheral retina, 30 μL per eye (bilateral), q.d. groups (2,6), 4 days, 8 hr after day 5 morning dose, read-out: Average Concentration Peripheral Retina): 50.8 nM
concentration at 1 h ([1]; peripheral retina, 30 μL, b.i.d. groups (3,7,12,14,16), 4 days, 1 hr after day 5 morning dose, read-out: Average Concentration Peripheral Retina): 108 nM
Average Concentration Central Choroid ([1]; Group 5: one dose day 1, 4 hr post-dose): <LLOQ
Average Concentration Central Choroid [1, 3]: <LLOQ
Average Concentration Peripheral Choroid [1, 3]: <LLOQ
Average Concentration Central Choroid ([1]; Groups 1, 5: one dose day 1, 1 hr post-dose): <LLOQ
Average Concentration Central Choroid ([1]; Groups 1, 5: one dose day 1, 2 hr post-dose): <LLOQ
Average Concentration Central Choroid ([1]; Groups 1, 5: one dose day 1, 8 hr post-dose): <LLOQ
Average Concentration Central Choroid [1, 4]: <LLOQ
Average Concentration Central Retina [1, 4]: <LLOQ
concentration at 1 h ([2]; 1 mg/mL (30 μL per eye, bilateral), Group 7: 1 mg/mL suspension, 50 μm particles, TRIS 0.60%, glycerol 2%, HEC 0.2%, HPMC 0.08%, Vitamin K3 1 μM, pH 6, QD for 4 days, 1 hr post dose on Day 5): 59 nM
concentration at 1 h ([2]; 2 mg/mL (30 μL per eye, bilateral), Group 9: 2 mg/mL suspension, 50 μm particles, TRIS 0.60%, glycerol 2%, HEC 0.2%, HPMC 0.08%, Vitamin K3 1 μM, pH 6, QD for 4 days, 1 hr post dose on Day 5): 90.8 nM
concentration at 1 h ([2]; 4 mg/mL (30 μL per eye, bilateral), Group 5: 4 mg/mL suspension (Control), 30 μm particles (Table 19-1) / Native (≈50) (Table 19-2), TRIS 0.60%, glycerol 2%, HEC 0.2%, HPMC 0.08%, Vitamin K3 1 μM, pH 6, QD for 4 days, 1 hr post dose on Day 5): 129 nM
concentration at 1 h ([2]; 4 mg/mL, 30 μL per eye, pH 6, Group 1: 4 mg/mL Ophthalmic Solution, pH 6 (Control), QD for 4 days, 1 hr post dose on Day 5): 129 nM
concentration at 1 h ([2]; 4 mg/mL, 30 μL per eye, pH 6): 151 nM
concentration at 1 h ([2]; 30 μL per eye, Group 10: 2 mg/mL suspension, 50 μm particles, TRIS 0.60%, glycerol 2%, HEC 0.2%, HPMC 0.08%, Vitamin K3 1 μM, pH 6, BID for 4 days, 1 hr post dose on Day 5): 116 nM
concentration at 1 h ([2]; 30 μL per eye, Group 11: 6 mg/mL suspension, 50 μm particles, TRIS 0.60%, glycerol 2%, HEC 0.2%, HPMC 0.08%, Vitamin K3 1 μM, pH 6, QD for 4 days, 1 hr post dose on Day 5): 148 nM
concentration at 1 h ([2]; 30 μL per eye, Group 12: 10 mg/mL suspension, 50 μm particles, TRIS 0.60%, glycerol 2%, HEC 0.2%, HPMC 0.08%, Vitamin K3 1 μM, pH 6, QD for 4 days, 1 hr post dose on Day 5): 199 nM
